The values below come from patent publication US7635716B2, “Substituted cyclopentanes or cyclopentanones as therapeutic agents” (Allergan, Inc., priority 2005, dated 2009).

Structures are written as SMILES. Like-named read-outs stand apart in the source and are kept apart here.

Series [1] concerns normotensive dogs. The experiment in a line: Ocular surface hyperemia (OSH) in normotensive dogs. It is filed as in vivo, dog. Details: maximum OSH score: scale not given here. To be noted: dosing once daily for 5 days. As for the experimental part: (§1) (Z)-7-[(1R,2S,3R,5R)-5-Chloro-2-(3,5-dichloro-phenoxymethyl)-3-hydroxy-cyclopentyl]-hept-5-enoic acid (15b) was tested at multiple concentrations in normotensive dogs, dosing once daily for 5 days. At 0.05%, the maximum IOP decrease from baseline was 4.3 mmHg (30%) at 6 h; the maximum OSH score was 0.6 at 6 h. […] This compound was also tested in laser-induced hypertensive monkeys, using one single day dose. At 0.1%, the maximum IOP decrease from baseline was 6 mmHg (19%) at 6 h.
(§2) (Z)-7-[(1R,2S,3R,5R)-5-Chloro-2-(3,5-dichloro-phenoxymethyl)-3-hydroxy-cyclopentyl]-hept-5-enoic acid isopropyl ester (42b) was tested in normotensive dogs at 0.05%, dosing once daily for 5 days. The maximum intraocular pressure (IOP) decrease from baseline was 3 mmHg (19%) at 6 h; the maximum ocular surface hyperemia (OSH) score was 0.6 at 74 h. This compound was also tested in laser-induced hypertensive monkeys, using one single day dose. At 0.01%, the maximum IOP decrease from baseline was 6 mmHg (16%) at 6 h.

For series [2], the system named is laser-induced hypertensive monkeys. The experiment in a line: Intraocular pressure (IOP) in laser-induced hypertensive monkeys. It is filed as in vivo, monkey. To be noted: Primates, topical, one single day dose, read-out: maximum IOP decrease from baseline (percent). As for the experimental part:
as §1, §2

The test system of series [3] is normotensive dogs. Kind of series: Intraocular pressure (IOP) in normotensive dogs. To be noted: Canis lupus familiaris, topical, 120 h, dosing once daily for 5 days, read-out: maximum IOP decrease from baseline (percent). It is filed as in vivo, dog.
For series [4], the system named is normotensive dogs. Kind of series: Intraocular pressure (IOP) in normotensive dogs. It is filed as in vivo, dog. To be noted: Canis lupus familiaris, topical, 120 h, dosing once daily for 5 days, read-out: maximum IOP decrease from baseline (percent). As for the experimental part: as §1, §2
The source holds these as a separate data set.

A further series concerns the target T1, hDP/Gqs5 (Homo sapiens, UniProt Q13258).
T1 construct: expressed in transfected cells; host or cells: HEK-293(EBNA) cells
T1 sequence (Q13258 1-359): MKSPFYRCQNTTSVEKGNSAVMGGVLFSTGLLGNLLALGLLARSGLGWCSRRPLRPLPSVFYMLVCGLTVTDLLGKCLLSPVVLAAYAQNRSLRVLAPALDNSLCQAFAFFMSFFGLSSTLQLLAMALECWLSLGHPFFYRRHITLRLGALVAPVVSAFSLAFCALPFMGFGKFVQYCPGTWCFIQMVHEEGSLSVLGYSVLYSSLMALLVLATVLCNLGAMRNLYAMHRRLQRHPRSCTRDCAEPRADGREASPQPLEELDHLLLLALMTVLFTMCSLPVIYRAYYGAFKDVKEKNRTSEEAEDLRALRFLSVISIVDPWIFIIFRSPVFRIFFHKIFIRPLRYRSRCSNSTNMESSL
The experiment in a line: FLIPR calcium signal, HEK-293(EBNA) cells. It is filed as cell-based. As for the experimental part: (§3) HEK-293(EBNA) cells, stably expressing one type or subtype of recombinant human prostaglandin receptors (prostaglandin receptors expressed: hDP/Gqs5; hEP1; hEP2/Gqs5; hEP3A/Gqi5; hEP4/Gqs5; hFP; hIP; hTP), were cultured in 100 mm culture dishes in high-glucose DMEM medium containing 10% fetal bovine serum, 2 mM 1-glutamine, 250 μg/ml geneticin (G418) and 200 μg/ml hygromycin B as selection markers, and 100 units/ml penicillin G, 100 μg/ml streptomycin and 0.25 μg/ml amphotericin B.
(§4) Cells were seeded at a density of 5×10^4 cells per well in Biocoat® Poly-D-lysine-coated black-wall, clear-bottom 96-well plates (Becton-Dickinson) and allowed to attach overnight in an incubator at 37° C. Cells were then washed two times with HBSS-HEPES buffer (Hanks Balanced Salt Solution without bicarbonate and phenol red, 20 mM HEPES, pH 7.4) using a Denley Cellwash plate washer (Labsystems). After 45 minutes of dye-loading in the dark, using the calcium-sensitive dye Fluo-4 AM at a final concentration of 2 μM, plates were washed four times with HBSS-HEPES buffer to remove excess dye leaving 100 μl in each well. Plates were re-equilibrated to 37° C. for a few minutes.
(§5) Cells were excited with an Argon laser at 488 nm, and emission was measured through a 510-570 nm bandwidth emission filter (FLIPR™, Molecular Devices, Sunnyvale, Calif.). Drug solution was added in a 50 μl volume to each well to give the desired final concentration. The peak increase in fluorescence intensity was recorded for each well. On each plate, four wells each served as negative (HBSS-HEPES buffer) and positive controls (standard agonists: BW245C (hDP); PGE2 (hEP1; hEP2/Gqs5; hEP3A/Gqi5; hEP4/Gqs5); PGF2. (hFP); carbacyclin (hIP); U-46619 (hTP), depending on receptor). The peak fluorescence change in each drug-containing well was then expressed relative to the controls.
(§6) Compounds were tested in a high-throughput (HTS) or concentration-response (CoRe) format. In the HTS format, forty-four compounds per plate were examined in duplicates at a concentration of 10^−5 M. To generate concentration-response curves, four compounds per plate were tested in duplicates in a concentration range between 10^−5 and 10^−11 M. The duplicate values were averaged. In either, HTS or CoRe format each compound was tested on at least 3 separate plates using cells from different passages to give an n≧3.

A further series addresses T2, hEP2/Gqs5 (Homo sapiens, UniProt P43116).
T2 construct: expressed in transfected cells; host or cells: HEK-293(EBNA) cells
Kind of series: FLIPR calcium signal, HEK-293(EBNA) cells. It is filed as cell-based. To be noted: Table 1, first part; triplicate; read-out: functional data (EC50) hEP2. As for the experimental part: as §3, §4, §5, §6

A further series has as its target T3, hEP3A/Gqi5 (Homo sapiens, UniProt P43115).
T3 construct: expressed in transfected cells; host or cells: HEK-293(EBNA) cells
T3 sequence (P43115 1-390): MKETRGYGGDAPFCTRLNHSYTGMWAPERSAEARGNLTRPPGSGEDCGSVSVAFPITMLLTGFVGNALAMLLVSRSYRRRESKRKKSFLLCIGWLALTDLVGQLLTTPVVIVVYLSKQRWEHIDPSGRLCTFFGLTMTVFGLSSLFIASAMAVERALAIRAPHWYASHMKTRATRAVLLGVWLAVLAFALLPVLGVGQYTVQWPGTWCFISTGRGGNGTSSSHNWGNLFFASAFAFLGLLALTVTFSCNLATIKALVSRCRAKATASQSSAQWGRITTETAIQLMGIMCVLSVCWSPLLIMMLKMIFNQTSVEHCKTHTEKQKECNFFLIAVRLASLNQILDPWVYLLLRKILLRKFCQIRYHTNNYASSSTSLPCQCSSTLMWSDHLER
Kind of series: FLIPR calcium signal, HEK-293(EBNA) cells. It is filed as cell-based. As for the experimental part:
as §3, §4, §5, §6

The next series concerns the target T4, hEP4/Gqs5 (Homo sapiens, UniProt P35408).
T4 construct: expressed in transfected cells; host or cells: HEK-293(EBNA) cells
Kind of series: FLIPR calcium signal, HEK-293(EBNA) cells. It is filed as cell-based. As for the experimental part: as §3, §4, §5, §6

A further series deals with T5, hFP (Homo sapiens, UniProt P43088).
T5 construct: expressed in transfected cells; host or cells: HEK-293(EBNA) cells
The experiment in a line: FLIPR calcium signal, HEK-293(EBNA) cells. It is filed as cell-based. As for the experimental part:
as §3, §4, §5, §6

The target of the next series is T6, hTP (Homo sapiens, UniProt P21731).
T6 construct: expressed in transfected cells; host or cells: HEK-293(EBNA) cells
T6 sequence (P21731 1-343): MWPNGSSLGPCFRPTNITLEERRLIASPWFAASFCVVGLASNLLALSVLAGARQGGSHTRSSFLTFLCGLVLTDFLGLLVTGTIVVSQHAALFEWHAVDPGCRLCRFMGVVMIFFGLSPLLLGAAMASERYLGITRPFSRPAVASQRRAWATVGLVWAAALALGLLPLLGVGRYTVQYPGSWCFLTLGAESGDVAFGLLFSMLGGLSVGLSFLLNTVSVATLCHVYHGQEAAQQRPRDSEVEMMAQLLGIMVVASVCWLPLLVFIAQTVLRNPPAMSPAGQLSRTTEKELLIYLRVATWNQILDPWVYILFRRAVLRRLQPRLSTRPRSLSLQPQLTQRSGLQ
Kind of series: FLIPR calcium signal, HEK-293(EBNA) cells. It is filed as cell-based. As for the experimental part: as §3, §4, §5, §6

T4 sequence (P35408 whole entry): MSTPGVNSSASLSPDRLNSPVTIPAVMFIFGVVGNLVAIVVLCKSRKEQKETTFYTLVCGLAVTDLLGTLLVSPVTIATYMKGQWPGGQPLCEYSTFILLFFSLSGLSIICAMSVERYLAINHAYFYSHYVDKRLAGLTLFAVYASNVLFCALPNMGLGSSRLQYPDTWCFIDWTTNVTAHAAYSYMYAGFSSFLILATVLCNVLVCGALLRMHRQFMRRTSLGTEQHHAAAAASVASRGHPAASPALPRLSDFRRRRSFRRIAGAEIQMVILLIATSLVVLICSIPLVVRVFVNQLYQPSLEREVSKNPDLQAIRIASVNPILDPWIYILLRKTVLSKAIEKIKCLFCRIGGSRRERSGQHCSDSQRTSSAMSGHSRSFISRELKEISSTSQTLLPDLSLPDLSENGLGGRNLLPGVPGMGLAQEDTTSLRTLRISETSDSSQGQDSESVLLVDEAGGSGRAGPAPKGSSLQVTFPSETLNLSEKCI
T5 sequence (P43088 whole entry): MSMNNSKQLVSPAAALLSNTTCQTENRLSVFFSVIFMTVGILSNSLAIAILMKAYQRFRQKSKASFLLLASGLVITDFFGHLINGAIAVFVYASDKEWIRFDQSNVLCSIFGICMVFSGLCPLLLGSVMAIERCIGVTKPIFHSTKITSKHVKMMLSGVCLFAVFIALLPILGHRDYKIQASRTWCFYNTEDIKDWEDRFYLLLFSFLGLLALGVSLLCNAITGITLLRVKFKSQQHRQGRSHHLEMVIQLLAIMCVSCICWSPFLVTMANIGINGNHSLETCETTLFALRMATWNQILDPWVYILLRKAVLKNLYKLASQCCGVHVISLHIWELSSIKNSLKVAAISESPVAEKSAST
T2 sequence (P43116 whole entry): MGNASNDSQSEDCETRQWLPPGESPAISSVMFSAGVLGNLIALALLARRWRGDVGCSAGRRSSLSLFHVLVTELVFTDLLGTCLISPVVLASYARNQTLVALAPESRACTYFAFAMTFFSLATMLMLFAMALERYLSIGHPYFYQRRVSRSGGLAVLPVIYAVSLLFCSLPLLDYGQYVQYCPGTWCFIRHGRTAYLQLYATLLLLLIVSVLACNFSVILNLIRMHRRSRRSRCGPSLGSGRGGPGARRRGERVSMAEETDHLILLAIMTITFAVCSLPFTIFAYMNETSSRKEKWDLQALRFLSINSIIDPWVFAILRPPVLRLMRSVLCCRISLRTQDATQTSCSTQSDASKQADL

With `CC(C)OC(=O)CCC/C=C\C[C@@H]1[C@@H](COc2cc(C(F)(F)F)cc(C(F)(F)F)c2)[C@H](O)C[C@H]1Cl` [Example 68, (Z)-7-[(1R,2S,3R,5R)-2-(3,5-Bis-trifluoromethyl-phenoxymethyl)-5-chloro-3-hydroxy-cyclopentyl]-hept-5-enoic acid isopropyl ester], in the series on normotensive dogs [1] (0.03%), the “maximum OSH score” value was 0.7 and the “time of maximum OSH score” value is given as 78 h. The inhibition in vivo at 0.03 % in series [2] (0.03%) came out at 11%. In addition, the inhibition in vivo at 0.03 % in the series on normotensive dogs [3] came out at 14%.

As to `CC(C)OC(=O)CCC/C=C\C[C@@H]1[C@@H](COc2ccc(CO)cc2)[C@H](O)C[C@H]1Cl` [Example 71, (Z)-7-[(1R,2S,3R,5R)-5-Chloro-3-hydroxy-2-(4-hydroxymethyl-phenoxymethyl)-cyclopentyl]-hept-5-enoic acid isopropyl ester], the inhibition in vivo at 0.1 % in the series with normotensive dogs [4] amounted to 33%; in series [2] it was 16%. Further, the “maximum OSH score” value in the series with normotensive dogs [1] (0.1%) was found to be 0.6. Besides, the “time of maximum OSH score” value in the series with normotensive dogs [1] (0.1%) is listed as 30 h.

For `CC(C)OC(=O)CCC/C=C\C[C@@H]1[C@@H](COc2cccc(C(F)(F)F)c2)[C@H](O)C[C@H]1Cl` [Example 69, (Z)-7-[(1R,2S,3R,5R)-5-Chloro-3-hydroxy-2-(3-trifluoromethyl-phenoxymethyl)-cyclopentyl]-hept-5-enoic acid isopropyl ester], the inhibition in vivo at 0.1 % in the series on normotensive dogs [4] amounted to 19%. Further, in the series on normotensive dogs [1] (0.1%), the “maximum OSH score” value came to 0.6 and the “time of maximum OSH score” value was found to be 50 h. The inhibition in vivo at 0.1 % in series [2] turned out to be 14%.

`COC(=O)CCC/C=C\C[C@@H]1[C@@H](COc2cc(Cl)cc(Cl)c2)[C@H](O)C[C@H]1Cl` [Example 11, (Z)-7-[(1R,2S,3R,5R)-5-Chloro-2-(3,5-dichloro-phenoxymethyl)-3-hydroxy-cyclopentyl]-hept-5-enoic acid methyl ester]: the EC50 on hDP/Gqs5 (Table 1, first part, triplicate, read-out: functional data (EC50) hDP) is more than 10 µM; at hDP/Gqs5 (Table 1, second part, quantity not given, values match functional data (EC50) of first part, read-out: Other Receptors hDP) it was more than 10 µM; at hEP2/Gqs5, 0.616 µM; at hEP3A/Gqi5 (Table 1, first part, data represents a single experiment, read-out: functional data (EC50) hEP3A*) it was 9.87 µM; on hEP3A/Gqi5 (Table 1, second part, quantity not given, values match functional data (EC50) of first part, read-out: Other Receptors hEP3) it was 9.87 µM; at hEP4/Gqs5 (Table 1, first part, triplicate, read-out: functional data (EC50) hEP4) it was more than 10 µM. In addition, the EC50 at hEP4/Gqs5 (Table 1, second part, read-out: hEP4 flipr EC50) was more than 10 µM; at hFP (Table 1, first part, triplicate, read-out: functional data (EC50) hFP), more than 10 µM; on hFP (Table 1, second part, quantity not given, values match functional data (EC50) of first part, read-out: Other Receptors hFP) it was more than 10 µM; at hTP (Table 1, first part, triplicate, read-out: functional data (EC50) hTP) it was more than 10 µM; at hTP (Table 1, second part, quantity not given, values match functional data (EC50) of first part, read-out: Other Receptors hTP) it was more than 10 µM.

With `CC(C)OC(=O)CCC/C=C\C[C@@H]1[C@@H](COc2cc(Cl)cc(Cl)c2)[C@H](O)C[C@H]1Cl` [Example 67, (Z)-7-[(1R,2S,3R,5R)-5-Chloro-2-(3,5-dichloro-phenoxymethyl)-3-hydroxy-cyclopentyl]-hept-5-enoic acid isopropyl ester], the inhibition in vivo at 0.05 % with normotensive dogs [4] (0.05%) was 19%. Besides, in the series with normotensive dogs [1] (0.05%), the “maximum OSH score” value is given as 0.6 and the “time of maximum OSH score” value is 74 h. Further, the inhibition in vivo at 0.01 % in series [2] (0.01%) was 16%.

For the molecule `Cc1cc(C)cc(OC[C@@H]2[C@@H](C/C=C\CCCC(=O)O)[C@H](Cl)C[C@H]2O)c1` [Example 36, (Z)-7-[(1R,2S,3R,5R)-5-Chloro-2-(3,5-dimethyl-phenoxymethyl)-3-hydroxy-cyclopentyl]-hept-5-enoic acid], the inhibition in vivo at 0.1 % with normotensive dogs [4] is 46%. Further, in the series on normotensive dogs [1] (0.1%), the “maximum OSH score” value is reported as 1.2 and the “time of maximum OSH score” value was determined as 28 h. In addition, the inhibition in vivo at 0.1 % in series [2] was determined as 25%.

As to `O=C(O)CCC/C=C\C[C@@H]1[C@@H](COc2cccc3ccccc23)[C@H](O)C[C@H]1Cl` [Example 19, (Z)-7-[(1R,2S,3R,5R)-5-Chloro-3-hydroxy-2-(naphthalen-1-yloxymethyl)-cyclopentyl]-hept-5-enoic acid], the inhibition in vivo at 0.1 % in the series with normotensive dogs [4] was determined as 41%. In addition, in the series with normotensive dogs [1] (0.1%), the “maximum OSH score” value was found to be 0.8 and the “time of maximum OSH score” value worked out at 54 h. Moreover, the inhibition in vivo at 0.1 % in series [2] is 31%.
